# pIC50: −log10 of the molar value. “And” between values parts separate entries of the source, which are not always exact repeats. Equal values may be shown once. Read-outs that look alike come from different tables or passages of the source.
# Tests used:
# [1] = molecular target: CYP2C9 (Homo sapiens, UniProt P11712); experiment: CYP2C9 inhibition, tolbutamide methylhydroxylase assay in human liver microsomes; type: in vitro ADME; set-up: from tissue; host or cells: in vivo, 14 healthy male subjects; settings: for pIC50: estimated
# Method: (§1) Inhibition of the biotransformation of CYP‐specific substrates by GLPG1205 was studied using human liver microsomes. Incubation was performed at 37°C with the following conditions: n = 3 for all assays; 0.1 M phosphate buffer (pH 7.4), the cofactor nicotinamide adenine dinucleotide phosphate (NADPH) incubated at 2 mM, the CYP‐specific substrate incubated at 1 nonsaturating concentration, and GLPG1205. Additional incubation was performed with (1) a 30‐minute preincubation step of GLPG1205 with microsomes before the addition of the cofactor NADPH and CYP substrate; and (2) a 30‐minute preincubation step of GLPG1205 with microsomes and the cofactor NADPH, before the addition of the CYP substrate. […] The CYP‐specific substrates were incubated per the above conditions at the following concentrations: tolbutamide, 200 μM, CYP2C9 substrate; S‐mephenytoin, 60 μM, CYP2C19 substrate; phenacetin, 40 μM, CYP1A2 substrate.
# (§2) Further details of the assays used for each CYP substrate are reported in the Supplemental Methods. Metabolites of the CYP‐specific substrates (acetaminophen for CYP1A2, hydroxytolbutamide for CYP2C9, hydroxymephenytoin for CYP2C19) were quantified using LC‐MS/MS.
# (§3) Enzymatic activity in the presence of GLPG1205 was expressed as a percentage of the control activity obtained with the vehicle only (ie, without GLPG1205 or reference inhibitor). Decreases in activity of less than 20% were not considered clinically relevant.
# (§4) Protocol for CYP Inhibition of the biotransformation of CYP-specific substrates by GLPG1205 was studied using human liver microsomes.^7 Incubations were performed at 37°C with the following conditions: n = 3 for all assays; 0.1 M phosphate buffer pH 7.4; the cofactor β-nicotinamide adenine dinucleotide phosphate (NADPH) incubated at 2 mM; the CYP-specific substrate incubated at one non-saturating concentration; and GLPG1205. Additional incubations were performed with: 1) a 30-minute preincubation step of GLPG1205 with microsomes before addition of the cofactor NADPH and CYP substrate; and 2) a 30-minute preincubation step of GLPG1205 with microsomes and the cofactor NADPH, before addition of the CYP substrate.
# (§5) The CYP-specific substrates were incubated at the following conditions: tolbutamide (200 µM; CYP2C9); S-mephenytoin (60 µM; CYP2C19); phenacetin (40 µM; CYP1A2).^8-10 Reference inhibitors (as detailed in the previous section) were incubated in parallel. […]
# (§6) A 2-fold dilution in D9-OH-tolbutamide at 1 µM in water with 0.1% formic acid was applied to the supernatants and then analysis was performed by LC-MS/MS with chromatographic separation. […] The quantification of the metabolite, hydroxytolbutamide, was performed in MRM mode using the 287.1 to 89.2 transition. […]
# [2] = Phase 1 drug-drug interaction study: plasma PK of GLPG1205; type: in vivo, human; settings: for AUC: 100 mg
# Method: The protein precipitated mixture was centrifuged at approximately 14 000 g for 15 minutes at room temperature. The clear supernatant was diluted with dilution solvent (water with 0.05% of trifluoroacetic acid) and then transferred into LC-MS plates. […] Chromatographic separation was performed on a Kinetex C18 column (50 x 3.0 mm, 2.6 µm from Phenomenex, Torrance, CA, USA) set at 40°C by using a Nexera high performance liquid chromatography (HPLC) system (Shimadzu, Kyoto, Japan) in isocratic elution mode.
# [3] = test system: CYP3A4; set-up: method as in PMID 33960725, PMID 29780235; settings: cortisol:6β‐hydroxycortisol ratio in urine; cited from earlier work
# [4] = molecular target: CYP2C19 (Homo sapiens, UniProt P33261); experiment: CYP2C19 inhibition, S-mephenytoin 4'-hydroxylase assay in human liver microsomes; type: in vitro ADME; set-up: from tissue; host or cells: in vivo, 14 healthy male subjects; settings: for pIC50: estimated
# Method: as §1, §2, §3, §4, §5
# as §6, with “two-fold” for “2-fold”, “D3-OH-mephenytoine” for “D9-OH-tolbutamide”, “hydroxymephenytoin,” for “hydroxytolbutamide,”, “235.1” for “287.1”, “150.2” for “89.2”
# [5] = cited from earlier work
# [6] = once‐daily oral dosing for 14 days
# CYP2C9, sequence (P11712 whole entry): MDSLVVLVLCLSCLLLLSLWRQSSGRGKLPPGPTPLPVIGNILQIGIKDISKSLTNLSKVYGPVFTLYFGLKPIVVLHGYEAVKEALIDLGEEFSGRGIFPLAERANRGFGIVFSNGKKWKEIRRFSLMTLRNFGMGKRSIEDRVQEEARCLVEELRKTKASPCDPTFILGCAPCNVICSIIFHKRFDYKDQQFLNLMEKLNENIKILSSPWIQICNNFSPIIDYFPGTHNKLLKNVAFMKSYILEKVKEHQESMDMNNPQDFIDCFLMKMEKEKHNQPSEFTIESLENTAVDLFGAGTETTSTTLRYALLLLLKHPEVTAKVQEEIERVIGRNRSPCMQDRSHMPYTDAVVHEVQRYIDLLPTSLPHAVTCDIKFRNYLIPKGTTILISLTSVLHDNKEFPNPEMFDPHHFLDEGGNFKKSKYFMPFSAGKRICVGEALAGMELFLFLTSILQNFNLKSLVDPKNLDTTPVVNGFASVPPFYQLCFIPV
# CYP2C19, sequence (P33261 whole entry): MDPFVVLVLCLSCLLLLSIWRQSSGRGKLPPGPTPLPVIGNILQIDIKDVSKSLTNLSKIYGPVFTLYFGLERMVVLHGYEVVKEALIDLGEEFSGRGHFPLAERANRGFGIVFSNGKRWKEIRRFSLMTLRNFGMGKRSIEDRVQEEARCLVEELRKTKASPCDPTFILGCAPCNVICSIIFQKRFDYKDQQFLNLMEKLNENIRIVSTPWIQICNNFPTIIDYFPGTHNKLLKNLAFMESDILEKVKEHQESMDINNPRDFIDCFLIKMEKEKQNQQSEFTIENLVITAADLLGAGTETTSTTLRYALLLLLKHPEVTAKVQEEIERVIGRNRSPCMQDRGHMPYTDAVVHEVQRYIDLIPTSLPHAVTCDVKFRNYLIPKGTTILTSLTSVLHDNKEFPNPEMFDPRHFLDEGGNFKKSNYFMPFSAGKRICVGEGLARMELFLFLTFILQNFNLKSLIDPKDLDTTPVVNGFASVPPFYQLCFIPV
structure (smiles),measurement,setting,value
"O=c1nc(OC[C@@H]2COCCO2)cc2n1CCc1cc(C#CC3CC3)ccc1-2 [GLPG1205, 9‐cyclopropylethynyl‐2‐[(S)‐1‐(1,4)dioxan‐2‐ylmethoxy]‐6,7‐dihydropyrimido[6,1‐a]isoquinolin‐4‐one]",inhibition of CYP2C9 in words,[1]; GLPG1205 50‐100 μM,moderate and reversible
same,pIC50,"[1]; human liver microsomes, read-out: IC50 for inhibition of CYP2C9",~4.30 and ≤ 4.30
same,pIC50,"[1]; equivalent of ≥50 μM, read-out: IC50 for inhibition of CYP2C9, equivalent",≤ 4.30
same,inhibition at 20 min,"[1]; human, liver microsomes, pH 7.4, probe tolbutamide 200 µM, GLPG1205 50‐100 μM without preincubation, tolbutamide 200 μM",49 to 56.9%
same,day by which steady state was reached,"[2]; GLPG1205 100 mg once a day, trough plasma concentrations",≤ 9 days
same,AUC,"[2]; male, human, plasma, oral, day 13, GLPG1205 100 mg once a day, n = 5, arithmetic mean (CV%), read-out: AUC0‐inf",373 µg·h/mL
same,AUC,"[2]; male, human, plasma, oral, day 13, GLPG1205 100 mg once a day, n = 14, arithmetic mean (CV%), read-out: AUC0‐t",395 µg·h/mL
same,Cmax,"[2]; male, human, plasma, oral, day 13, GLPG1205 100 mg once a day, n = 14, arithmetic mean (CV%)",5010 ng/mL
same,half-life,"[2]; male, human, plasma, oral, day 13, GLPG1205 100 mg once a day, n = 14, arithmetic mean (CV%), read-out: t1/2, λz (converted)",74.1 h
same,tmax,"[2]; male, human, plasma, oral, day 13, GLPG1205 100 mg once a day, n = 14, median (min‐max)",2 h
same,CYP3A4 induction,[3],did not induce CYP3A4
same,inhibition of CYP2C19 in words,[4]; GLPG1205 50‐100 μM,moderate and reversible
same,pIC50,"[4]; human liver microsomes, read-out: IC50 for inhibition of CYP2C19",≤ 4.30
same,pIC50,"[4]; equivalent of ≥50 μM, read-out: IC50 for inhibition of CYP2C19, equivalent",≤ 4.30
same,inhibition at 20 min,"[4]; human, liver microsomes, pH 7.4, probe S-mephenytoin 60 µM, GLPG1205 50‐100 μM without preincubation, S‐mephenytoin 60 μM",44.2 to 49.3%
same,median time to maximum plasma concentration (tmax),[5]; healthy male subjects,4 h
same,maximum tolerated dose,[5]; healthy subjects,100 mg once a day
same,Cmax,"[5]; multiple doses of GLPG1205 100 mg once a day, steady state",3910 ng/mL
same,day by which steady‐state plasma concentration was reached,[5]; [6],≤ 10 days
same,"elimination half‐life, average",[5]; [6],88.6 h

# Reference: PMC8453848, “Effect of GLPG1205, a GPR84 Modulator, on CYP2C9, CYP2C19, and CYP1A2 Enzymes: In Vitro and Phase 1 Studies” (Clinical Pharmacology in Drug Development, 2021)
